# Experimental data reported in PubChem BioAssay AID1159588 (Gregory J. Crowther, 2016).
# Molecular target: Calcium-dependent protein kinase 4 (Plasmodium falciparum (isolate 3D7)) (UniProt Q8IBS5)
# Assay: PfCDPK4 kinase inhibitors, biochemical, TCAMS library (AID 1159588)
# Details: recombinant PfCDPK4, Kinase-Glo ATP depletion luminescence
# Sequence of Calcium-dependent protein kinase 4 (Plasmodium falciparum (isolate 3D7)) (Q8IBS5 whole entry, looked up): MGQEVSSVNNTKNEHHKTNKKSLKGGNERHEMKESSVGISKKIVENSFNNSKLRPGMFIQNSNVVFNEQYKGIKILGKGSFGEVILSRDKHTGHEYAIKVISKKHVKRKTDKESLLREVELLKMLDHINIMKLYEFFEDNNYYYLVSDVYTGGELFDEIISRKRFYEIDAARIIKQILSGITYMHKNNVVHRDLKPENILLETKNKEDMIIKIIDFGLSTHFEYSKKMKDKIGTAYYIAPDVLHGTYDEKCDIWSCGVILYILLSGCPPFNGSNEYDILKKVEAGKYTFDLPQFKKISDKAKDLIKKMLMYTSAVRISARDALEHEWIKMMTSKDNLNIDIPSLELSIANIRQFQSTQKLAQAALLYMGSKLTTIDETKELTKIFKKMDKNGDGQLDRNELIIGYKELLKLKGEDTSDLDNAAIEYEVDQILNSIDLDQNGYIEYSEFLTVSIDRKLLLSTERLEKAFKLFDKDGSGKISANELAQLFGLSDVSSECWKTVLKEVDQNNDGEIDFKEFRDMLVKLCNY
row,SMILES,IC50
1,CN1CCN(c2ccc(Nc3ncc(C#N)c(Nc4ccccc4C(N)=O)n3)cc2)CC1,188 nM
2,CCn1c(-c2nonc2N)nc2c(-c3cccc(NC(=O)NC45CC6CC(CC(C6)C4)C5)c3)ncc(OCCCN)c21,158 nM
3,CCS(=O)(=O)c1ccc(OC)c(Nc2nccc(-c3c(-c4cccc(NC(=O)c5c(F)cccc5F)c4)nn4ncccc34)n2)c1,201 nM
4,O=C(Nc1c(F)cccc1F)c1cccc(-c2nn3ccccc3c2-c2ccnc(Nc3cccc(-c4cnco4)c3)n2)c1,134 nM
5,CCn1c(-c2nonc2N)nc2c(-c3cccc(NC(=O)Nc4ccccc4OC)c3)ncc(OCCCN)c21,706 nM
6,CCn1c(-c2nonc2N)nc2c(-c3cccc(NC(=O)Nc4cccc(C#N)c4)c3)ncc(OCCCN)c21,170 nM
7,NCCCNc1nc(Nc2cccc(C(N)=O)c2)c2c(=O)[nH]ccc2n1,967 nM
8,CCn1c(-c2nonc2N)nc2c(-c3cccc(NC(=O)Nc4ccccc4Cl)c3)ncc(OCCCN)c21,138 nM
9,O=C(NCC(c1ccc(C(F)(F)F)cc1)N1CCCC1)c1cc(-c2ccncc2)c(-c2cccc(O)c2)o1 (stereo not given),178 nM
10,CCn1c(-c2nonc2N)nc2c(-c3cccc(Cl)c3)ncc(OCCCNCc3cnc(C)nc3N)c21,145 nM
11,CCn1c(-c2nonc2N)nc2c(-c3cccc(NC(=O)Nc4cccc(C(F)(F)F)c4)c3)ncc(OCCCN)c21,342 nM
12,NC[C@H](CC1CCCCC1)NC(=O)c1ccc(-c2ccnc3[nH]ccc23)s1,527 nM
13,O=C(Nc1cccc(-c2nn3ccccc3c2-c2ccnc(Nc3ccc(-c4ccn[nH]4)cc3)n2)c1)c1c(F)cccc1F,307 nM
14,O=C(Nc1cccc(-c2nn3ccccc3c2-c2ccnc(Nc3cccc(-c4cnco4)c3)n2)c1)C1CCCCC1,612 nM
15,NCC(NC(=O)c1ccc(-c2c[nH]c3ncccc23)s1)c1ccccc1 (stereo not given),473 nM
16,CC(C)(CN)c1cc(-c2ccc(Cl)c(O)c2)c(-c2ccncc2)o1,433 nM
17,NS(=O)(=O)c1cccc(N=Cc2c(O)[nH]c3ccc(S(=O)(=O)Cc4c(Cl)cccc4Cl)cc23)c1,116 nM
18,COc1cc(Nc2nccc(-c3c(-c4cccc(NC(=O)c5c(F)cccc5F)c4)nn4ccccc34)n2)cc(OC)c1OC,77 nM
19,O=C(Nc1cccc(-c2nn3ccccc3c2-c2ccnc(Nc3ccc(NCCCN4CCOCC4)c(F)c3)n2)c1)c1c(F)cccc1F,315 nM

row,SMILES,IC50
1,O=C(Nc1cccc(-c2nn3ncccc3c2-c2ccnc(Nc3cccc(-c4cnco4)c3)n2)c1)c1c(F)cccc1F,145 nM
2,Cc1cccc(Nc2nc(NCCCCN)nc3cc[nH]c(=O)c23)c1,166 nM
3,CCn1c(-c2nonc2N)nc2c(-c3cccc(NC(=O)Nc4ccc(C#N)cc4)c3)ncc(OCCCN)c21,84 nM
4,NS(=O)(=O)c1cccc(Nc2nc(N[C@@H]3CCNC3)nc3cc[nH]c(=O)c23)c1,135 nM
5,CCn1c(-c2nonc2N)nc2c(-c3cccc(NC(=O)Nc4cccc(Cl)c4)c3)ncc(OCCCN)c21,81 nM
6,CCn1c(-c2nonc2N)nc2c(-c3cc4ccccc4s3)ncc(C(=O)N3CCC(N)C3)c21 (stereo not given),89 nM
7,O=C(Nc1ccccc1)Nc1cccc(-c2nn3c(OCCN4CCCC4)cccc3c2-c2ccncc2)c1,775 nM
8,Cc1[nH]nc2ccc(-c3cc(OC[C@@H](N)Cc4ccccc4)cnc3-c3cc4ccccc4s3)cc12,563 nM
9,CCN(CC)CCCOc1ccc(Nc2nccc(-c3c(-c4cccc(NC(=O)c5c(F)cccc5F)c4)nn4ccccc34)n2)cc1F,86 nM
10,CNC(=O)c1ccccc1Nc1nc(Nc2ccc(CCN3CCN(C)CC3)cc2)ncc1Cl,361 nM
11,O=C(Nc1cccc(-c2nn3ncccc3c2-c2ccnc(Nc3ccccc3)n2)c1)c1c(F)cccc1F,352 nM
12,Cc1csc(-c2ncc(OC[C@@H](N)Cc3ccccc3)cc2-c2ccc3n[nH]c(C)c3c2)c1,420 nM
13,Cn1cccc1C(=O)Nc1cccc(-c2nn3ccccc3c2-c2ccnc(Nc3ccc4c(c3)OCCO4)n2)c1,191 nM
14,O=C(Nc1cccc(-c2nn3ccccc3c2-c2ccnc(Nc3ccc(C(=O)N4CCOCC4)cc3)n2)c1)c1c(F)cccc1F,311 nM
15,CC(c1cccc(Nc2nccc(-c3c(-c4cccc(NC(=O)c5c(F)cccc5F)c4)nn4ccccc34)n2)c1)S(C)(=O)=O (stereo not given),90 nM
16,COCCOc1ccc(Nc2nccc(-c3c(-c4cccc(NC(=O)c5c(F)cccc5F)c4)nn4ccccc34)n2)cc1Cl,853 nM
17,N#Cc1ccc(C(=O)Nc2cc(-c3cccc(O)c3)cc3[nH]ncc23)cc1,478 nM
18,O=c1[nH]ccc2nc(N[C@@H]3CCNC3)nc(Nc3cc(Cl)cc(Cl)c3)c12,446 nM
19,Cc1cc(Nc2ncc(C#N)c(Nc3ccccc3C(N)=O)n2)ccc1N1CCN(C)CC1,89 nM

# More lines, in order of falling IC50, values ahead:
row,IC50,SMILES
1,76 nM,Cc1cccc(Nc2nc(N[C@@H]3CCCNC3)nc3cc[nH]c(=O)c23)c1
2,75 nM,CN1CCN(c2ccc(Nc3nccc(-c4c(-c5cccc(NC(=O)c6c(F)cccc6F)c5)nn5ccccc45)n3)cc2)CC1
3,73 nM,CCN(CC)CCNC(=O)c1ccc(N=Cc2c(O)[nH]c3ccc(S(=O)(=O)Cc4c(Cl)cccc4Cl)cc23)cc1
4,67 nM,CS(=O)(=O)Cc1ccc(Nc2nccc(-c3c(-c4cccc(NC(=O)C5CCCCC5)c4)nn4ncccc34)n2)cc1
5,65 nM,CS(=O)(=O)Cc1ccc(Nc2nccc(-c3c(-c4cccc(C(=O)Nc5c(F)cccc5F)c4)nn4ccccc34)n2)cc1
6,59 nM,CCn1c(-c2nonc2N)nc2c(-c3cccc(NC(=O)Nc4ccc5c(c4)CCC5)c3)ncc(OCCCN)c21
7,52 nM,CS(=O)(=O)Cc1ccc(Nc2nccc(-c3c(-c4cccc(NC(=O)c5c(F)cccc5F)c4)nn4ccccc34)n2)cc1
8,51 nM,NS(=O)(=O)c1cccc(Nc2nccc(-c3c(-c4cccc(NC(=O)c5c(F)cccc5F)c4)nn4ccccc34)n2)c1
9,46 nM,CCn1c(-c2nonc2N)nc2c(-c3cccc(Cl)c3)ncc(OCCCNCCc3cnc[nH]3)c21
10,45 nM,COc1cc(Nc2nccc(-c3c(-c4cccc(NC(=O)c5c(F)cccc5F)c4)nn4ncccc34)n2)cc(OC)c1OC
11,43 nM,CCn1c(-c2nonc2N)nc2c(-c3ccccc3)ncc(OCCCCNCCc3ncc[nH]3)c21
12,38 nM,CCn1c(-c2nonc2N)nc2c(-c3ccccc3)ncc(OCCCNCCCN3CCOCC3)c21
13,30 nM,CCn1c(-c2nonc2N)nc2c(-c3cccc(NC(=O)Nc4ccc(C(F)(F)F)cc4)c3)ncc(OCCCN)c21
14,29 nM,NS(=O)(=O)CCc1cccc(Nc2nccc(-c3c(-c4cccc(NC(=O)c5c(F)cccc5F)c4)nn4ccccc34)n2)c1
15,26 nM,CC(=O)Nc1cccc(Nc2nccc(-c3c(-c4cccc(NC(=O)c5c(F)cccc5F)c4)nn4ncccc34)n2)c1
16,24 nM,CC(c1cccc(Nc2nccc(-c3c(-c4cccc(NC(=O)c5c(F)cccc5F)c4)nn4ncccc34)n2)c1)S(C)(=O)=O (stereo not given)
17,21 nM,Cc1[nH]c(/C=C2\C(=O)Nc3ccc(S(=O)(=O)Cc4c(Cl)cccc4Cl)cc32)c(C)c1C(=O)N1CCC[C@@H]1CN1CCCC1
